# PMC9387934, “Randomized single oral dose phase 1 study of safety, tolerability, and pharmacokinetics of Iminosugar UV-4 Hydrochloride (UV-4B) in healthy subjects” (PLoS Neglected Tropical Diseases, 2022)
# Structures can show the parent of a compound that is named as a salt. Where two headings read alike, the source gives them in different places.
# Experiments:
# CYP2B6 = system: CYP2B6; design: method as in Investigator’s Brochure (IB); conditions: ref Investigator’s Brochure (IB), cited from earlier work
# [1] = Phase 1a single ascending dose study: safety and tolerability (treatment-emergent adverse events); type: in vivo, human; conditions: for Tolerability of single oral doses / Dose-limiting toxicity: po; for Maximum tolerated dose: single oral dose in humans, not yet determined
# Experimental: UV-4 ((2R,3R,4R,5S)-2-(hydroxymethyl)-1-(9-methoxynonyl)piperidine-3,4,5-triol, also called N-(9’-methoxynonyl)-1-deoxynojirimycin, or MON-DNJ) hydrochloride was evaluated in a first-in-human, randomized, single-center, double-blind, placebo-controlled, parallel group, single ascending dose Phase 1a clinical trial in healthy subjects (Figs 1 and 2, ClinicalTrials.gov Identifier NCT02061358 https://clinicaltrials.gov/ct2/show/NCT02061358). The primary objective was to determine the safety and tolerability of a single-ascending oral dose of UV-4 hydrochloride (Fig 3). […] The secondary objective was to determine PK parameters describing absorption and elimination of UV-4 following a single oral dose of UV-4 hydrochloride. Eight cohorts of eight subjects each were enrolled and completed the study. In each cohort, six subjects received UV-4 as the hydrochloride; two received placebo. Subjects were screened against study eligibility criteria up to four weeks (Days -28 to -2) before admission to the clinic (Day -1). Dosing was performed on an inpatient basis. Subjects remained in clinic for 48 hours post-dosing for PK sample collection and safety assessments and were discharged from the clinic on Day 3. Subjects returned to the clinic on Day 4 for additional safety assessments, then again on Day 9 ± 1 for a final follow-up visit.
# Safety assessments included telemetry (pre-dose and 12 hours during and post-dosing), 12-lead ECG measurements, vital signs (supine and standing) including systolic blood pressure (SBP) and diastolic blood pressure (DBP) (mmHg), pulse rate (beats/minute), respiratory rate (breaths/minute), and oral temperature, physical examinations, clinical laboratory assessments (hematology, clinical chemistry, coagulation, urinalysis, platelet function), stool evaluation including occult blood, and adverse events (AEs).
# Safety oversight was provided by an independent safety monitor (ISM), Safety Review Committee (SRC), and Safety Monitoring Committee (SMC). In addition, a cardiologist reviewed all cases with AEs related to heart rate and blood pressure. Summary statistics for subject baseline characteristics and measurements, disposition, exposure, and safety were tabulated by cohort in a blinded manner for the review by the SRC and SMC. Blinded individual case information was also supplied to the SMC and cardiologist for review. SRC reviews occurred after all subjects in a given cohort completed evaluations, or after predefined criteria triggered a review (halting criteria). Provided satisfactory safety review, subjects were enrolled into the next higher dose cohort. In addition, the SMC met to review all safety and exposure data after completion of Cohort 3. All AEs were coded to System Organ Class (SOC) and Preferred Term (PT) using the Medical Dictionary for Regulatory Activities (MedDRA), Version 16.1 [34].
# All AEs were graded for severity and relationship to study product, according to one of the following categories:
# • Grade 1: An event that is easily tolerated by the subject, causing minimal discomfort and not interfering with everyday activities; • Grade 2: An event that is sufficiently discomforting to interfere with normal everyday activities; • Grade 3: An event that prevents normal everyday activities; • Grade 4: An event that requires an emergency room visit or hospitalization […]
# 9.1 Specification of Safety Parameters
# Safety is a primary outcome measure.
# Adverse events will be evaluated from time of dose administration through the follow-up visit. Adverse events that have not resolved at the follow-up visit will be followed until resolution or until medically stable. […]
# If a vital sign measurement is observed to be abnormal, it may be repeated up to a total of 2 times at 5 to 10 minutes intervals. If a normal value is obtained, no further repeat measurements are required. If the value is still abnormal after 2 repeats, the least abnormal value will be utilized for grading the AE. The AE will […]
# [2] = mouse, cited from earlier work
# [3] = design: method as in Investigator’s Brochure (IB); conditions: mice, up to 250 mg/kg TID (750 mg/kg/day); ref Investigator’s Brochure (IB); cited from earlier work
smiles,measurement,setting,value
"COCCCCCCCCCN1C[C@H](O)[C@@H](O)[C@H](O)[C@H]1CO [UV-4, N-(9’-methoxynonyl)-1-deoxynojirimycin]",Estimated IC50,CYP2B6; CYP2B6,> 191 µg/mL
same,IC50,"CYP2B6; CYP2B6, read-out: Estimated IC50",> 600 µM
same,Direct inhibition of CYP2B6,CYP2B6; in vitro,weak direct inhibition
same,Grade 2 Related TEAE: number (%) of subjects,"[1]; both, human, in vivo",1 (2.1%)
same,Grade 3 Related TEAE: number (%) of subjects,"[1]; both, human, in vivo",0
same,Grade 3 TEAE: number (%) of subjects,"[1]; both, human, in vivo",1 (2.1%)
same,Incidence of Bristol Stool Scale Type 7,"[1]; both, human, in vivo",no incidence of Bristol Stool Scale Type 7
same,"Related TEAE, Abdominal Pain: number (%) of subjects","[1]; both, human, in vivo",1 (2.1%)
same,"Related TEAE, Balance disorder: number (%) of subjects","[1]; both, human, in vivo",1 (2.1%)
same,"Related TEAE, Blood Calcium Decreased: number (%) of subjects","[1]; both, human, in vivo",1 (2.1%)
same,"Related TEAE, Blood Pressure Decreased: number (%) of subjects","[1]; both, human, in vivo",0
same,"Related TEAE, Cardiac disorders (System Organ Class): number (%) of subjects","[1]; both, human, in vivo",1 (2.1%)
same,"Related TEAE, Dizziness postural: number (%) of subjects","[1]; both, human, in vivo",1 (2.1%)
same,"Related TEAE, Dizziness: number (%) of subjects","[1]; both, human, in vivo",1 (2.1%)
same,"Related TEAE, Ear and labyrinth disorders (System Organ Class): number (%) of subjects","[1]; both, human, in vivo",1 (2.1%)
same,"Related TEAE, Gastrointestinal disorders (System Organ Class): number (%) of subjects","[1]; both, human, in vivo",3 (6.3%)
same,"Related TEAE, General disorders and administration site conditions (System Organ Class): number (%) of subjects","[1]; both, human, in vivo",1 (2.1%)
same,"Related TEAE, Headache: number (%) of subjects","[1]; both, human, in vivo",2 (4.2%)
same,"Related TEAE, Investigations (System Organ Class): number (%) of subjects","[1]; both, human, in vivo",2 (4.2%)
same,"Related TEAE, Lipase increased: number (%) of subjects","[1]; both, human, in vivo",1 (2.1%)
same,"Related TEAE, Local Swelling: number (%) of subjects","[1]; both, human, in vivo",1 (2.1%)
same,"Related TEAE, Nervous system disorder (System Organ Class): number (%) of subjects","[1]; both, human, in vivo",4 (8.3%)
same,"Related TEAE, Neutrophil count decreased: number (%) of subjects","[1]; both, human, in vivo",0
same,"Related TEAE, Presyncope: number (%) of subjects","[1]; both, human, in vivo",0
same,"Related TEAE, Proteinuria: number (%) of subjects","[1]; both, human, in vivo",1 (2.1%)
same,"Related TEAE, Renal and urinary disorders (System Organ Class): number (%) of subjects","[1]; both, human, in vivo",1 (2.1%)
same,"Related TEAE, Supraventricular tachycardia: number (%) of subjects","[1]; both, human, in vivo",0
same,"Related TEAE, Ventricular tachycardia: number (%) of subjects","[1]; both, human, in vivo",1 (2.1%)
same,"Related TEAE, Vertigo: number (%) of subjects","[1]; both, human, in vivo",1 (2.1%)
same,"Related TEAE, White blood cell count decreased: number (%) of subjects","[1]; both, human, in vivo",0
same,Subjects with ≥1 TEAE: number (%) of subjects,"[1]; both, human, in vivo",43 (89.6%)
same,Tolerability of single oral doses,"[1]; both, human, in vivo",safe at all doses tested up to 1000 mg
same,Grade 1 Related TEAE: number (%) of subjects,"[1]; human, in vivo",10 (20.8%)
same,TEAE Haematuria: number (%) of subjects,"[1]; human, in vivo",4 (8.3)
same,TEAE Headache: number (%) of subjects,"[1]; human, in vivo",3 (6.3)
same,TEAE Prothrombin time prolonged: number (%) of subjects,"[1]; human, in vivo",4 (8.3)
same,Dose-dependent increases in adverse events,[1]; in vivo,not observed
same,Fecal occult blood findings,[1]; in vivo,None of the subjects had positive fecal occult blood findings
same,Subjects reporting abdominal pain,[1]; in vivo,two
same,Subjects who vomited,[1]; in vivo,one
same,Dose-limiting toxicity,[1]; in vivo,No dose limiting toxicity was observed
same,Tolerability of single oral doses,[1]; in vivo,well tolerated
same,Maximum tolerated dose,[1],> 1000 mg
"COCCCCCCCCCN1C[C@H](O)[C@@H](O)[C@H](O)[C@H]1CO [UV-4B, N-(9’-methoxynonyl)-1-deoxynojirimycin hydrochloride]",Dose with lymphoid depletion in thymus,[2]; F,"≥ 25 mg/kg/dose, TID"
same,Dose with lymphoid depletion in thymus,[2]; M,"100 mg/kg/dose, TID"
same,Dose with neutrophilic infiltration and erosion/ulcer in rectum,[2]; females (printed F100)),"100 mg/kg/dose, TID"
same,Neurologic Effects,[2]; functional observational battery,no effect in FOB
same,Dose with decrease in thymus weight,[2]; printed (men),"≥ 25 mg/kg/dose, TID"
same,Dose with increased AST,[2]; printed (men),"≥ 600 mg/kg/dose, TID"
same,Dose with decrease in thymus weight,[2]; women [sic],"100 mg/kg/dose, TID"
same,Dose with increased AST,[2]; women [sic],"600 mg/kg/dose, TID"
same,Cardiovascular Effects,[2],none observed
same,"Dose with decrease in red cell mass, RBC count, HGB, and HCT",[2],"100 mg/kg/dose, TID"
same,Dose with fecal abnormalities,[2],"> 250 mg/kg/dose, TID"
same,CNS assessments,[3],no adverse treatment-related effects
same,"Related TEAE, Balance disorder: number (%) of subjects","[1]; both, human, in vivo",1/48
same,"Related TEAE, Dizziness postural: number (%) of subjects","[1]; both, human, in vivo",1/48
same,"Related TEAE, Dizziness: number (%) of subjects","[1]; both, human, in vivo",1/48
same,"Related TEAE, Headache: number (%) of subjects","[1]; both, human, in vivo",2/48
same,Dose-limiting toxicity,[1]; in vivo,not observed
same,Maximum tolerated dose,[1],> 1000 mg
